For two compounds, Ki and Km results are on record in PMC3407616, “Inhibition of Heme Peroxidases by Melamine” (Enzyme Research, 2012).

One data set concerns the target lactoperoxidase (LPO) (Bos taurus, UniProt P80025). Nature of the data set: iodide oxidation (HOI formation), absorbance […] nm, kinetic fit. The data set is classed as biochemical. Conditions: read-out: LPO^b.
The subject of a further data set is I. The experiment in a line: purified protein. Conditions: pH 6.0.

Usually Km stands for the substrate concentration at which the rate is half of its maximum.

Consider `Nc1nc(N)nc(N)n1` [melamine, 2,4,6-triamino-1,3,5-triazine], for which the Ki at lactoperoxidase (LPO) stood at 15 ± 5 mM. Take lactoperoxidase (LPO) (Bos taurus): the Michaelis-Menten constant (Km) in the data set on I stood at 2900 ± 400 µM.
